15 molecules from PubChem BioAssay (NCI) can be followed below.

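Method: 48-hour compound exposure of cells in 96-well plates, five concentrations, linear interpolation of endpoints. TGI: concentration producing complete growth inhibition.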

Among the test systems are EKVX NSCLC; RPMI-8226 leukemia; OVCAR-3 ovarian; SNB-19 CNS; A549 NSCLC; SR leukemia; M14 melanoma; OVCAR-5 ovarian; OVCAR-8 ovarian; MDA-MB-231 breast; HOP-92 NSCLC.
What all share (assay): NCI anticancer screen, dose series, 48 h

For `CC1C(c2ccccc2)=CCON1c1ccccc1` (centres undefined), the TGI in the test with EKVX NSCLC, in the test with RPMI-8226 leukemia, with OVCAR-3 ovarian, in the test with SNB-19 CNS, with A549 NSCLC and in the test with SR leukemia was more than 100 µM throughout. Also, the TGI in the test on M14 melanoma, in the test on OVCAR-5 ovarian and in the test on OVCAR-8 ovarian was more than 100 µM each time.

Consider `C=C(CO)[C@H]1CC/C(C)=C/CC/C(C)=C/C/C=C(\C)[C@H](O)C1`, for which the TGI in the test on EKVX NSCLC was more than 100 µM; in the test with MDA-MB-231 breast, 56.6 µM; in the test with RPMI-8226 leukemia, 51.6 µM; with OVCAR-3 ovarian, 93.6 µM; with SNB-19 CNS it was more than 100 µM; with A549 NSCLC, more than 100 µM. Besides, the TGI was 39.5 µM with HOP-92 NSCLC, more than 100 µM in the test on OVCAR-5 ovarian and 35.3 µM with OVCAR-8 ovarian.

On to `Cc1cccc(NC(=O)CSc2nnc(Cc3ccccc3)o2)c1`, for which the TGI in the test on EKVX NSCLC, with OVCAR-3 ovarian, in the test on SNB-19 CNS, with A549 NSCLC, with M14 melanoma and in the test on OVCAR-5 ovarian was more than 100 µM each time. In addition, in the test on OVCAR-8 ovarian, the TGI is more than 100 µM.

For `CCOC(=O)C(NC(=O)NCc1ccc(F)cc1)C(F)(F)F` (centres undefined), the TGI in the test with EKVX NSCLC, in the test on RPMI-8226 leukemia, with SNB-19 CNS, in the test with A549 NSCLC, in the test with SR leukemia and in the test with M14 melanoma was more than 100 µM each time. For the same molecule, the TGI in the test with OVCAR-5 ovarian and in the test with OVCAR-8 ovarian was more than 100 µM each time.

Turning to `CCOC(=O)Cc1nc2nn(Cc3ccccc3)cc2c(=O)[nH]1`, the TGI with EKVX NSCLC, with MDA-MB-231 breast, with RPMI-8226 leukemia, in the test with OVCAR-3 ovarian, in the test on SNB-19 CNS and with A549 NSCLC was more than 100 µM in each case. Moreover, the TGI in the test with OVCAR-5 ovarian and in the test on OVCAR-8 ovarian was more than 100 µM each time.

As to `CC(C)(C)c1cc(N=NC(=S)NCc2ccccc2)cc(C(C)(C)C)c1O`, the TGI in the test with EKVX NSCLC, in the test with RPMI-8226 leukemia, in the test with OVCAR-3 ovarian, in the test on SNB-19 CNS, with A549 NSCLC and with SR leukemia was more than 100 µM throughout. In addition, the TGI with M14 melanoma and with OVCAR-8 ovarian was more than 100 µM each time.

On to `O=C(/C=C/c1c(O)c2ccccc2[nH]c1=O)CC(=O)C(=O)Nc1cccc(O)c1`, for which the TGI with EKVX NSCLC, in the test with MDA-MB-231 breast, in the test on RPMI-8226 leukemia, in the test with OVCAR-3 ovarian, in the test on SNB-19 CNS and with A549 NSCLC was more than 100 µM in each case. For the same molecule, the TGI in the test on HOP-92 NSCLC, in the test on M14 melanoma, in the test with OVCAR-5 ovarian and with OVCAR-8 ovarian was more than 100 µM in each case.

Regarding `C1=Cc2nc1c(-c1ccccc1)c1ccc([n-]1)c(-c1ccccc1)c1nc(c(-c3ccccc3)c3ccc([n-]3)c2-c2ccccc2)C=C1.[Zn+2]`, the TGI in the test with EKVX NSCLC, with RPMI-8226 leukemia, with OVCAR-3 ovarian, with SNB-19 CNS, in the test on A549 NSCLC and in the test on HOP-92 NSCLC was more than 100 µM throughout. The TGI in the test with M14 melanoma, in the test with OVCAR-5 ovarian and in the test on OVCAR-8 ovarian was more than 100 µM throughout.

Consider `O=c1oc2ccccc2c(O)c1C(c1ccc2ccccc2c1)c1c(O)c2ccccc2oc1=O`, for which the TGI was more than 100 µM in the test on EKVX NSCLC; 47.1 µM in the test with MDA-MB-231 breast; more than 100 µM in the test on RPMI-8226 leukemia; more than 100 µM in the test on OVCAR-3 ovarian; more than 100 µM with SNB-19 CNS; more than 100 µM with A549 NSCLC. Also, the TGI in the test with HOP-92 NSCLC is more than 100 µM; in the test on M14 melanoma it was 73.2 µM; in the test on OVCAR-5 ovarian, 62 µM; in the test with OVCAR-8 ovarian, 31.6 µM.

As to `OC1OC(c2ccc[nH]2)C(F)(F)C(F)(F)C1(F)F` (centres undefined), the TGI in the test with EKVX NSCLC, in the test with MDA-MB-231 breast, with RPMI-8226 leukemia, in the test with OVCAR-3 ovarian, in the test on SNB-19 CNS and in the test on A549 NSCLC was more than 100 µM throughout. Also, the TGI with HOP-92 NSCLC, in the test with M14 melanoma, with OVCAR-5 ovarian and with OVCAR-8 ovarian was more than 100 µM each time.

As for `CCC12CC[C@H](C#N)N3CCc4c(n(c5ccccc45)C(=O)C1)C32` (some centres undefined), the TGI with EKVX NSCLC came to 64.1 µM; in the test on RPMI-8226 leukemia it was 48.9 µM; in the test on OVCAR-3 ovarian it was 29 µM; in the test with A549 NSCLC it was 61.3 µM; in the test on M14 melanoma, 44.9 µM; in the test on OVCAR-5 ovarian it was 38.5 µM. This molecule also registered a TGI in the test on OVCAR-8 ovarian of 57.5 µM.

With `Cn1c(=S)[nH]c2c(Cl)cc(Cl)cc2c1=O`, the TGI in the test on EKVX NSCLC, with MDA-MB-231 breast, in the test with OVCAR-3 ovarian, in the test with SNB-19 CNS, with A549 NSCLC and in the test on HOP-92 NSCLC was more than 100 µM throughout. For the same molecule, the TGI with M14 melanoma, in the test on OVCAR-5 ovarian and in the test on OVCAR-8 ovarian was more than 100 µM each time.

For `NC(=S)Nc1nnc(-c2ccc(-c3nnc(NC(N)=S)o3)cc2)o1`, the TGI in the test with EKVX NSCLC, in the test on RPMI-8226 leukemia, in the test with OVCAR-3 ovarian, in the test on SNB-19 CNS, with A549 NSCLC and in the test with HOP-92 NSCLC was more than 100 µM in each case. Further, the TGI with M14 melanoma, in the test on OVCAR-5 ovarian and with OVCAR-8 ovarian was more than 100 µM throughout.

As to `Clc1cccc(Cl)c1C1SCc2nc3cc4ccccc4cc3n21` (centres undefined), the TGI in the test on EKVX NSCLC, in the test with MDA-MB-231 breast, in the test on RPMI-8226 leukemia, in the test with OVCAR-3 ovarian, in the test with SNB-19 CNS and in the test on A549 NSCLC was more than 100 µM in each case. Moreover, the TGI in the test on M14 melanoma, with OVCAR-5 ovarian and in the test with OVCAR-8 ovarian was more than 100 µM in each case.

Turning to `O=C(CSc1nnc(-c2ccc(N=Cc3ccc(Cl)cc3)cc2)o1)Nc1ccccc1`, the TGI in the test with EKVX NSCLC, with RPMI-8226 leukemia, in the test with SNB-19 CNS, with A549 NSCLC, in the test with SR leukemia and in the test on M14 melanoma was more than 100 µM throughout. The molecule also had a TGI in the test on OVCAR-8 ovarian of more than 100 µM.
